Measured values reported in PubChem BioAssay (NCI).
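A five-concentration, 48-hour dose response in 96-well plates underlies each endpoint, interpolated linearly between surrounding concentrations. GI50 is the concentration that inhibits growth by half. The concentration for full growth arrest is given as TGI.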

Legend:
Assay in all cases: DTP human tumour cell line panel, 48 h
[1] = tested on: 786-0 renal
[2] = tested on: A549 NSCLC
[3] = tested on: ACHN renal
[4] = tested on: BT-549 breast
[5] = tested on: CAKI-1 renal
[6] = tested on: CCRF-CEM leukemia
[7] = tested on: COLO 205 colon
[8] = tested on: DU-145 prostate
[9] = tested on: EKVX NSCLC
[10] = tested on: HCC-2998 colon
[11] = tested on: HCT-116 colon
[12] = tested on: HCT-15 colon
[13] = tested on: HL-60(TB) leukemia
[14] = tested on: HOP-62 NSCLC
[15] = tested on: HOP-92 NSCLC
[16] = tested on: HS 578T breast
[17] = tested on: HT29 colon
[18] = tested on: IGROV1 ovarian
[19] = tested on: K-562 leukemia
[20] = tested on: KM12 colon
[21] = tested on: LOX IMVI melanoma
[22] = tested on: M14 melanoma
[23] = tested on: MALME-3M melanoma
[24] = tested on: MCF7 breast
[25] = tested on: MDA-MB-231 breast
[26] = tested on: MDA-MB-435
[27] = tested on: MDA-MB-468 breast
[28] = tested on: MOLT-4 leukemia
[29] = tested on: NCI-H226 lung
[30] = tested on: NCI-H23 lung
[31] = tested on: NCI-H460 lung
[32] = tested on: NCI-H522 lung
[33] = tested on: NCI/ADR-RES ovarian
[34] = tested on: OVCAR-3 ovarian
[35] = tested on: OVCAR-4 ovarian
[36] = tested on: OVCAR-5 ovarian
[37] = tested on: OVCAR-8 ovarian
[38] = tested on: PC-3 prostate
[39] = tested on: RPMI-8226 leukemia
[40] = tested on: RXF 393 renal
[41] = tested on: SF-268 CNS
[42] = tested on: SF-295 CNS
[43] = tested on: SF-539 CNS
[44] = tested on: SK-MEL-2 melanoma
[45] = tested on: SK-MEL-28 melanoma
[46] = tested on: SK-MEL-5 melanoma
[47] = tested on: SK-OV-3 ovarian
[48] = tested on: SN12C renal
[49] = tested on: SNB-19 CNS
[50] = tested on: SNB-75 CNS
[51] = tested on: SW-620 colon
[52] = tested on: T-47D breast
[53] = tested on: TK-10 renal
[54] = tested on: U251 CNS
[55] = tested on: UACC-257 melanoma
[56] = tested on: UACC-62 melanoma
[57] = tested on: UO-31 renal

Q: `CN(C)c1nc(NCCNS(=O)(=O)c2ccc(C3=Nc4c(N)nc(N)nc4NC(c4ccccc4)C3)cc2)nc(Nc2ccc(F)cc2)n1` (centres undefined) was tested. Which GI50 [1] did it give?
A: Its GI50 is 7.88 µM.

Q: And the TGI [1]?
A: Its TGI is > 100 µM.

Q: What about the GI50 [2] of the same compound?
A: The GI50 was > 100 µM.

Q: What about the TGI [2] of the same compound?
A: The TGI was > 100 µM.

Q: What about the GI50 [3] of the same compound?
A: The GI50 was > 100 µM.

Q: What about the TGI [3] of the same compound?
A: Its TGI is > 100 µM.

Q: And the GI50 [4]?
A: Its GI50 is 8.82 µM.

Q: What about the TGI [4] of the same compound?
A: Its TGI is > 100 µM.

Q: And the GI50 [5]?
A: Its GI50 is 9.73 µM.

Q: And the TGI [5]?
A: Its TGI is > 100 µM.

Q: And the GI50 [6]?
A: The GI50 was 4.02 µM.

Q: What about the TGI [6] of the same compound?
A: The TGI was > 100 µM.

Q: What about the GI50 [7] of the same compound?
A: Its GI50 is 16.4 µM.

Q: What about the TGI [7] of the same compound?
A: Its TGI is > 100 µM.

Q: And the GI50 [8]?
A: Its GI50 is > 100 µM.

Q: What about the TGI [8] of the same compound?
A: Its TGI is > 100 µM.

Q: And the GI50 [9]?
A: The GI50 was 6.65 µM.

Q: What about the TGI [9] of the same compound?
A: Its TGI is > 100 µM.

Q: What about the GI50 [10] of the same compound?
A: The GI50 was 11.7 µM.

Q: What about the TGI [10] of the same compound?
A: Its TGI is > 100 µM.

Q: What about the GI50 [11] of the same compound?
A: The GI50 was 7.37 µM.

Q: What about the TGI [11] of the same compound?
A: The TGI was > 100 µM.

Q: And the GI50 [12]?
A: The GI50 was > 100 µM.

Q: What about the TGI [12] of the same compound?
A: The TGI was > 100 µM.

Q: What about the GI50 [13] of the same compound?
A: The GI50 was 4.24 µM.

Q: What about the TGI [13] of the same compound?
A: The TGI was > 100 µM.

Q: And the GI50 [14]?
A: Its GI50 is 99.7 µM.

Q: What about the TGI [14] of the same compound?
A: Its TGI is > 100 µM.

Q: And the GI50 [15]?
A: The GI50 was 2.18 µM.

Q: What about the TGI [15] of the same compound?
A: Its TGI is 9.96 µM.

Q: What about the GI50 [16] of the same compound?
A: Its GI50 is 6.43 µM.

Q: And the TGI [16]?
A: Its TGI is > 100 µM.

Q: And the GI50 [17]?
A: Its GI50 is 5.32 µM.

Q: And the TGI [17]?
A: The TGI was > 100 µM.

Q: What about the GI50 [18] of the same compound?
A: The GI50 was 5.76 µM.

Q: What about the TGI [18] of the same compound?
A: The TGI was > 100 µM.

Q: What about the GI50 [19] of the same compound?
A: Its GI50 is 4.33 µM.

Q: And the TGI [19]?
A: The TGI was > 100 µM.

Q: What about the GI50 [20] of the same compound?
A: The GI50 was 8.8 µM.

Q: And the TGI [20]?
A: The TGI was > 100 µM.

Q: What about the GI50 [21] of the same compound?
A: The GI50 was 9.96 µM.

Q: And the TGI [21]?
A: Its TGI is 25.7 µM.

Q: What about the GI50 [22] of the same compound?
A: Its GI50 is 24.4 µM.

Q: And the TGI [22]?
A: The TGI was > 100 µM.

Q: What about the GI50 [23] of the same compound?
A: The GI50 was 7.34 µM.

Q: And the TGI [23]?
A: The TGI was > 100 µM.

Q: And the GI50 [24]?
A: The GI50 was 3.85 µM.

Q: What about the TGI [24] of the same compound?
A: The TGI was 85.5 µM.

Q: What about the GI50 [25] of the same compound?
A: Its GI50 is 6.16 µM.

Q: And the TGI [25]?
A: The TGI was 67.5 µM.

Q: What about the GI50 [26] of the same compound?
A: The GI50 was 15 µM.

Q: And the TGI [26]?
A: The TGI was > 100 µM.

Q: And the GI50 [27]?
A: Its GI50 is 3.37 µM.

Q: What about the TGI [27] of the same compound?
A: Its TGI is 13.7 µM.

Q: And the GI50 [28]?
A: Its GI50 is 3.11 µM.

Q: And the TGI [28]?
A: Its TGI is > 100 µM.

Q: And the GI50 [29]?
A: The GI50 was > 100 µM.

Q: And the TGI [29]?
A: The TGI was > 100 µM.

Q: What about the GI50 [30] of the same compound?
A: The GI50 was > 100 µM.

Q: What about the TGI [30] of the same compound?
A: Its TGI is > 100 µM.

Q: And the GI50 [31]?
A: Its GI50 is 6.49 µM.

Q: And the TGI [31]?
A: Its TGI is > 100 µM.

Q: And the GI50 [32]?
A: The GI50 was 77.4 µM.

Q: What about the TGI [32] of the same compound?
A: Its TGI is > 100 µM.

Q: And the GI50 [33]?
A: Its GI50 is > 100 µM.

Q: What about the TGI [33] of the same compound?
A: Its TGI is > 100 µM.

Q: What about the GI50 [34] of the same compound?
A: Its GI50 is 69.3 µM.

Q: And the TGI [34]?
A: Its TGI is > 100 µM.

Q: And the GI50 [35]?
A: Its GI50 is 74.6 µM.

Q: And the TGI [35]?
A: The TGI was > 100 µM.

Q: And the GI50 [36]?
A: The GI50 was > 100 µM.

Q: What about the TGI [36] of the same compound?
A: The TGI was > 100 µM.

Q: What about the GI50 [37] of the same compound?
A: The GI50 was 61.4 µM.

Q: And the TGI [37]?
A: The TGI was > 100 µM.

Q: What about the GI50 [38] of the same compound?
A: Its GI50 is 3.84 µM.

Q: What about the TGI [38] of the same compound?
A: The TGI was > 100 µM.

Q: What about the GI50 [39] of the same compound?
A: The GI50 was 3.32 µM.

Q: What about the TGI [39] of the same compound?
A: The TGI was > 100 µM.

Q: And the GI50 [40]?
A: The GI50 was 2.55 µM.

Q: And the TGI [40]?
A: The TGI was 8.95 µM.

Q: What about the GI50 [41] of the same compound?
A: Its GI50 is 9.85 µM.

Q: And the TGI [41]?
A: Its TGI is > 100 µM.

Q: And the GI50 [42]?
A: The GI50 was 9.5 µM.

Q: And the TGI [42]?
A: Its TGI is > 100 µM.

Q: What about the GI50 [43] of the same compound?
A: The GI50 was 12 µM.

Q: What about the TGI [43] of the same compound?
A: Its TGI is 63.8 µM.

Q: And the GI50 [44]?
A: Its GI50 is 28.5 µM.

Q: And the TGI [44]?
A: Its TGI is > 100 µM.

Q: What about the GI50 [45] of the same compound?
A: The GI50 was > 100 µM.

Q: What about the TGI [45] of the same compound?
A: The TGI was > 100 µM.

Q: What about the GI50 [46] of the same compound?
A: The GI50 was 5.81 µM.

Q: And the TGI [46]?
A: The TGI was 20.5 µM.

Q: What about the GI50 [47] of the same compound?
A: The GI50 was > 100 µM.

Q: And the TGI [47]?
A: Its TGI is > 100 µM.

Q: What about the GI50 [48] of the same compound?
A: Its GI50 is 7.83 µM.

Q: And the TGI [48]?
A: The TGI was > 100 µM.

Q: What about the GI50 [49] of the same compound?
A: The GI50 was 21.8 µM.

Q: What about the TGI [49] of the same compound?
A: The TGI was > 100 µM.

Q: And the GI50 [50]?
A: Its GI50 is 3.58 µM.

Q: And the TGI [50]?
A: The TGI was > 100 µM.

Q: And the GI50 [51]?
A: The GI50 was 40.4 µM.

Q: And the TGI [51]?
A: The TGI was > 100 µM.

Q: And the GI50 [52]?
A: Its GI50 is 5.12 µM.

Q: What about the TGI [52] of the same compound?
A: Its TGI is > 100 µM.

Q: What about the GI50 [53] of the same compound?
A: Its GI50 is > 100 µM.

Q: And the TGI [53]?
A: The TGI was > 100 µM.

Q: And the GI50 [54]?
A: Its GI50 is 18.4 µM.

Q: What about the TGI [54] of the same compound?
A: The TGI was > 100 µM.

Q: What about the GI50 [55] of the same compound?
A: Its GI50 is 87.2 µM.

Q: What about the TGI [55] of the same compound?
A: Its TGI is > 100 µM.

Q: What about the GI50 [56] of the same compound?
A: Its GI50 is 31.5 µM.

Q: What about the TGI [56] of the same compound?
A: Its TGI is > 100 µM.

Q: And the GI50 [57]?
A: The GI50 was > 100 µM.

Q: And the TGI [57]?
A: The TGI was > 100 µM.
